{"source": "patent US10308631B2", "about": "“Selective anti-cancer compounds” (NATIONAL UNIVERSITY OF SINGAPORE, priority 2015, dated 2019)", "key": {"[1]": {"test_system": "LC3 (LC3-II/LC3-I) in HeLa cells", "assay": "Immunoblot analysis of LC3 in HeLa cells", "assay_type": "cell-based, human", "conditions": "0.625-10 μM, 6 h", "protocol": "(§1) FIG. 1 is a diagrammatic representation of an immunoblot analysis showing the dual inhibition of the autophagic process and mitotic progression by Compound 1 (a131). HeLa cells were treated with the indicated μM concentration of Compound 1 (a131) or chloroquine for 6 h. Cells were harvested and total lysates were analysed by detecting the mitotic marker phospho-histone H3 at serine 10 (pH3 (Ser10)) and the autophagosome marker LC3. The band intensity ratios of LC3-II/LC3-I as compared to DMSO control (lane 1, 0 μM chloroquine, and lane 7, 0 μM a131) are indicated (Ratio). Antibodies raised against β-actin were used as an internal loading control.\n(§2) The ability of Compound 1 to inhibit lysosome function was examined using immunoblotting. HeLa cervical cancer cells were cultured in Dulbecco's modified Eagle's medium (DMEM) supplemented with 10% Fetal Bovine Serum (FBS, Thermo Scientific). […]\n(§3) Defects in lysosome function and inhibition of autophagy can be measured by accumulation of LC3-phosphatidylethanolamine conjugated non-soluble form (LC3-II), which are converted from soluble LC3-I. Thus, antibodies raised against LC3 (Cell Signaling, Cat#4108) were used to determine lysosomal function and integrity. […] The inhibitory ability of Compound 1 was also quantitatively compared to CQ."}, "[2]": {"test_system": "caspase-3/7 activity in oncogene-transformed human fibroblast BJ cells", "assay": "Caspase-3/7 Glo assay", "assay_type": "cell-based", "conditions": "2.5 and 5 μM, 48 h", "protocol": "FIGS. 5B, C provide a representation of an immunoblot analysis to examine the PARP or caspase-3 cleavage (B) and a histogram showing Caspase-3/7 activities, plotted as fold induction compared to DMSO-treated cells (C). BJ normal and transformed cells were treated with Compound 1 (a131) for 48 h. Cells were harvested and total lysates were analysed by detecting cleaved PARP or caspase-3 or caspase-3/7 activities as markers for apoptotic induction. […] Student's t-test was performed to determine the statistical significance (**=p<0.001, ***=p<0.0001, n.s.=no significance).\nWhether Compound 1 (a131)-induced cancer cell-lethality was mediated by apoptosis or non-apoptotic programmed cell death was determined. For this purpose, isogenic non-transformed and oncogene-transformed human fibroblast BJ cell lines were cultured in DMEM supplemented with 10% FBS. The cells were treated with Compound 1 (2.5 μM and 5 μM, DMSO). 48 h after treatment, total cell lysates were prepared for immunoblot analysis using antibodies against cleaved PARP and cleaved caspase-3, well-known markers for apoptosis. In addition, a fraction of total cell lysates was also subjected to Caspase-3/7 Glo (Promega) assay to measure the combined activity of caspase 3/7. This was determined using caspase-Glo 3/7 Assay Kit (Promega) and its activity was normalized to a number of viable cells as determined by MTT assay."}, "[3]": {"test_system": "phospho-histone H3 (pH3) in HeLa cells", "assay": "Immunoblot analysis of phospho-histone H3 in HeLa cells", "assay_type": "cell-based, human", "conditions": "6 h", "protocol": "as §1, §2, §3"}}}
{"molecule": "N#C/C(=C\\c1cccc2cnccc12)c1c[nH]c2ccccc12", "note": "[Compound 1, (Z)-2-(1H-indol-3-yl)-3-(isoquinolin-5-yl)acrylonitrile]", "values": [{"measurement": "levels of LC3-II", "setting": "[1]", "value": "markedly increased the levels of LC3-II"}, {"measurement": "caspase-3/7 activity", "setting": "[2]", "value": "significant induction of caspase-3/7 activity"}, {"measurement": "inhibition of mitotic progression (levels of phospho-histone H3)", "setting": "[3]", "value": "potently inhibits mitotic progression"}]}
